Reference: US12319652B2, “Salts and solid forms of (R)-1-(5-methoxy-1H-indol-1-yl)-N,N-dimethylpropan-2-amine” (priority 2021, dated 2025)
Like-named read-outs stand apart in the source and are kept apart here.

Legend:
[1] = Solubility determinations in SIF buffers (FaSSIF, FeSSIF, FaSSGF); assay type: physicochemical; settings: 37° C. up to 24 h
How it was run: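 Salt forms suspended at 30 mg/ml in FaSSIF, FeSSIF or FaSSGF at 37° C. for 24 h, pH kept in range with 1 M HCl or NaOH. Supernatants sampled at 1, 3, 6 and 24 h, centrifuged and quantified by HPLC as compound 1 free base against amorphous compound 1 calibrants; pellets checked by XRPD for form change.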

[2] = Dynamic vapor sorption (DVS); assay type: physicochemical; settings: for DVS isotherm type / hygroscopicity: 0 to 90 to 0% RH; for DVS mass change at 90.0% RH / DVS mass change at 0.0% RH / DVS mass change at 5.0% RH / DVS mass change at 10.0% RH / DVS mass change at 15.0% RH / DVS mass change at 20.0% RH / DVS mass change at 25.0% RH / DVS mass change at 30.0% RH / DVS mass change at 40.0% RH / DVS mass change at 50.0% RH / DVS mass change at 60.0% RH / DVS mass change at 70.0% RH / DVS mass change at 80.0% RH: dm/dt <0.002%
Procedure: There are two main methods to use, one is by time where the equilibration is given by a fixed time, i.e., 1 hour per step and is appropriate for an unknown phase. The second, is by mass per time unit (dm/dt) of 0.002%/min; that is when the difference in weight is less than 0.002%, the instrument moves onto the next step. For unknown hygroscopicity, the method by time is indicated because it gives an idea of water affinity without wasting much time. Ideally the analyses are repeated using the mass equilibration method to confirm. By experience for hygroscopic samples, the analysis can continue for days. For non-hygroscopic samples the difference between the two methods may not be significant.
Consequently, amorphous batch 1 was analyzed by the fixed time method and once compound 1 fumarate crystalline polymorphic Form A was generated the analyses was repeated as mass per unit time equilibrated @dm/dt ([…]) and is given below (refer to FIG. 12).
(§1) The moisture sorption properties of the feed API were analysed by DVS Intrinsic instrument (Surface Measurement System). Approximately 20 to 50 mg of API was weighed onto an aluminium pan and loaded into the instrument equilibrated at 25° C. The sample was equilibrated under a dry atmosphere (0% relative humidity) for 60 minutes, before increasing the humidity from 0% to 30% at 5%4 step increment and from 30% to 90% at 10% step increment. A desorption cycle was also applied from 90% to 30% (10% step decrement) and from 30% to 0% (5% step decrement). A rate of change in mass per time unit (dm/dt) of 0.002%/min was set as the equilibrium parameter. Kinetic and isotherm graphs were calculated.
Specimens were equilibrated at 0% RH for 60 min, prior to DVS analyses (stepped increment % RH up to 90% RH and stepped decrement % RH down to 0% RH.
as §1, with “5%” for “5%4”

[3] = In-situ hydration evaluation of monofumarate Form A; assay type: physicochemical; settings: ambient
Procedure: An XRPD specimen of monofumarate Form A was prepared and treated with sequential aliquots of water.
An XRPD plate was made up with a small amount of compound 1·Fumarate (batch 1, 5 mg, 1.0 wt) and analysed by XRPD on the 9-minute method and labelled as T=0. After the run, the sample was charged with purified water (10 μL, 2.0 vol) and analysed again by XRPD, labelled as T=9. This was repeated twice more for T=18 and T=27. The sample was left to stand under ambient conditions (15-25° C., ambient humidity, and pressure) in the fume hood for 33 h (FIG. 23).

[4] = Amorphous forms and thermal study (glass temperature Tg by DSC/TGA); assay type: physicochemical; settings: for DSC measurements, Endset / DSC measurements, Integral / DSC measurements, Onset / DSC measurements, Peak: DSC thermal event Tg; for Form Assignment: heated up past the melt event on a hot stage microscope
[5] = assay type: physicochemical
Procedure: Both samples were maintained at 75% RH at 40° C. and monitored by HPLC at time points t=1 h, 3 h, 24 h, 48 h, 7 d, 2 w, 3 w, 4 w and 5 w.
Under the conditions evaluated during this study, XRPD analysis could not be performed as compound 1 Fumarate turned to an oily residue within 3 h under both conditions.
[…] Both samples were maintained under equilibrium humidity of 75% RH at 40° C. and monitored, initially at hourly and then weekly time points.

[6] = Equilibrium humidity evaluation of crystalline compound 1 HCl Form A (95% RH/20° C.); assay type: physicochemical; settings: for XRPD (t = 0) / XRPD (t = 5 d) / XRPD (t = 10 d): 95% RH @ 20° C.; for DSC onset / XRPD: t = 10 days, 95 % RH @ 20° C.
Procedure: The stability of crystalline compound 1 HCl Form A was evaluated. Absorbent compound 1·Cl (Form A), (100 mg) was maintained, open-capped at 95% RH/20° C. and monitored at t=0, t=5 d and t=10 d, time points.
While absorbent Compound 1 HCl Form A), (100 mg) was placed open-capped inside double, cable-tied, electrostatic polythene bags (to mimic a typical packaging configuration) and placed inside the same humidity chamber at 95% RH at 20° C. and monitored at t=0, t=5 d and t=10 d time points. Stability of compound 1·HCl (Form A) at 40° C./75% RH was examined as part of the salt screen, and was stable over 10 d.

[7] = Heat-up/cool-down crystallization screen of Compound 1 HCl
Procedure: A heat up/cool down crystallization screen was performed. An compound 1 HCl Form A was used as input material. […]

[8] = Double polyethylene bagged, open vial
[9] = 2-Propanol 3.0 vol + Water 75 μl
[10] = Chlorobenzene 3.0 vol + MeOH 175 μl
[11] = Ethyl formate 3.0 vol + MeOH 225 μl
[12] = Isopropyl acetate 3.0 vol + IPA 3725 μl
[13] = Nitromethane 3.0 vol + MeOH 50 μl

## COc1ccc2c(ccn2C[C@@H](C)N(C)C)c1.O=C(O)/C=C/C(=O)O
[1]
  Solubility in FaSSGF: Solubility in SIF buffers: Soluble in FaSSIF, FeSSIF and FaSSGF at 37°
  Solubility in FaSSIF: Solubility in SIF buffers: Soluble in FaSSIF, FeSSIF and FaSSGF at 37°
  Solubility in FeSSIF: Solubility in SIF buffers: Soluble in FaSSIF, FeSSIF and FaSSGF at 37°
[2]
  RH above which pronounced mono, multilayer sorption and probable deliquescence occurred: > 80 % RH
[2]; listed as Form A
  DVS isotherm type / hygroscopicity: DVS mass per unit time equlibrated @ dm/dt (0.0002%/min) on Form A was performed (specimen was deliquescent by DVS).
[2]; listed as compound 1 fumarate crystalline polymorphic Form A
  DVS isotherm type / hygroscopicity: deliquescent type isotherm
[2]; 70% RH (printed 70° RH in Example 8)
  DVS weight gain at 70% RH: ca. 1 % w/w
[2]; desorption step (second 90.0 entry)
  DVS mass change at 90.0% RH: 9.440%
[2]; desorption step
  DVS mass change at 0.0% RH: 0.085%
  DVS mass change at 5.0% RH: 0.113%
  DVS mass change at 10.0% RH: 0.141%
  DVS mass change at 15.0% RH: 0.169%
  DVS mass change at 20.0% RH: 0.201%
  DVS mass change at 25.0% RH: 0.238%
  DVS mass change at 30.0% RH: 0.279%
  DVS mass change at 40.0% RH: 0.374%
  DVS mass change at 50.0% RH: 0.476%
  DVS mass change at 60.0% RH: 0.619%
  DVS mass change at 70.0% RH: 0.885%
  DVS mass change at 80.0% RH: 2.087%
[2]; sorption step
  DVS mass change at 0.0% RH: 0.00%
  DVS mass change at 5.0% RH: 0.021%
  DVS mass change at 10.0% RH: 0.047%
  DVS mass change at 15.0% RH: 0.068%
  DVS mass change at 20.0% RH: 0.088%
  DVS mass change at 25.0% RH: 0.107%
  DVS mass change at 30.0% RH: 0.125%
  DVS mass change at 40.0% RH: 0.173%
  DVS mass change at 50.0% RH: 0.242%
  DVS mass change at 60.0% RH: 0.366%
  DVS mass change at 70.0% RH: 0.590%
  DVS mass change at 80.0% RH: 0.174%
  DVS mass change at 90.0% RH: 9.440%
[3]
  Form change on treatment with sequential aliquots of water (XRPD): conversion into its amorphous form

## COc1ccc2c(ccn2C[C@@H](C)N(C)C)c1.Cl [amorphous compound 1 HCl]
[4]; 206.7° C., comment: De-solvation
  TGA % Δwt.: −18.2%,
[4]
  DSC measurements, Endset: 48.35 °C
  DSC measurements, Integral: −2.2 Jg^−1
  DSC measurements, Onset: 37.07 °C
  DSC measurements, Peak: 43.00 °C
  Form Assignment: Amorphous

## COc1ccc2c(ccn2C[C@@H](C)N(C)C)c1.O=C(O)/C=C/C(=O)O [amorphous compound 1 fumarate]
[5]; input batch 1 before storage at 75% RH/40° C.
  HPLC (% area): 93.84 % area
[5]; open-necked wide vial, 75% RH/40° C., t = 2 w
  HPLC (% area): 91.24 % area
[5]; open-necked wide vial, 75% RH/40° C., t = 3 w
  HPLC (% area): 94.17 % area
[5]; open-necked wide vial, 75% RH/40° C., t = 4 w
  HPLC (% area): 91.86 % area
[5]; open-necked wide vial, 75% RH/40° C., t = 5 w
  HPLC (% area): 91.57 % area
[5]; sealed PK0056 electrostatic bags, 75% RH/40° C., t = 2 w
  HPLC (% area): 91.21 % area
[5]; sealed PK0056 electrostatic bags, 75% RH/40° C., t = 3 w
  HPLC (% area): 91.94 % area
[5]; sealed PK0056 electrostatic bags, 75% RH/40° C., t = 4 w
  HPLC (% area): 90.9 % area
[5]; sealed PK0056 electrostatic bags, 75% RH/40° C., t = 5 w
  HPLC (% area): 91.3 % area
[4]
  DSC measurements, Endset: 34.30 °C
  DSC measurements, Integral: −1.73 Jg^−1
  DSC measurements, Onset: 21.14 °C
  DSC measurements, Peak: 29.67 °C
  Form Assignment: Amorphous

## COc1ccc2c(ccn2C[C@@H](C)N(C)C)c1.Cl [compound 1 HCl Form A]
[6]; [8]
  XRPD (t = 0): Form A
  XRPD (t = 5 d): Form A
  XRPD (t = 10 d): Form A
  DSC onset: 203.7 °C
  XRPD: Form A
[6]; Open vial
  XRPD (t = 0): Form A
  XRPD (t = 5 d): Form A
  XRPD (t = 10 d): Form A
  DSC onset: 204.4 °C
  XRPD: Form A
[7]; [9]
  Observations (t = -, T = 70° C.): Pink solution
  XRPD (moist pellet): Form A
  XRPD (oven dried): Form A
[7]; Acetone 3.0 vol + Water 50 μl
  Observations (t = -, T = 70° C.): Pink solution
  XRPD (moist pellet): Form A
  XRPD (oven dried): Form A
[7]; [10]
  Observations (t = -, T = 70° C.): Pink solution
  XRPD (moist pellet): Form A
  XRPD (oven dried): Form A
[7]; DCM 3.0 vol + MeOH 125 μl
  Observations (t = -, T = 70° C.): Pink solution
  XRPD (moist pellet): Form A
  XRPD (oven dried): Form A
[7]; EtOAc 3.0 vol + EtOH 1375 μl
  Observations (t = -, T = 70° C.): Pink solution
  XRPD (moist pellet): Form A
  XRPD (oven dried): Form A
[7]; EtOH 3.0 vol + Water 50 μl
  Observations (t = -, T = 70° C.): Pink solution
  XRPD (moist pellet): Form A
  XRPD (oven dried): Form A
[7]; [11]
  Observations (t = -, T = 70° C.): Pink solution
  XRPD (moist pellet): Form A
  XRPD (oven dried): Form A
[7]; [12]
  Observations (t = -, T = 70° C.): Suspension
  XRPD (moist pellet): Form A
  XRPD (oven dried): Form A
[7]; MEK 3.0 vol + Water 50 μl
  Observations (t = -, T = 70° C.): Pink solution
  XRPD (moist pellet): Form A
  XRPD (oven dried): Form A
[7]; MeCN 3.0 vol + Water 25 μl
  Observations (t = -, T = 70° C.): Pink solution
  XRPD (oven dried): Form A
[7]; MeOH 3.0 vol + water 25 μl
  Observations (t = -, T = 70° C.): Pink solution
  XRPD (moist pellet): Form A
  XRPD (oven dried): Form A
[7]; MeTHF 3.0 vol + MeOH 425 μl
  Observations (t = -, T = 70° C.): Pink solution
  XRPD (moist pellet): Form A
  XRPD (oven dried): Form A
[7]; Methyl acetate 3.0 vol + Water 75 μl
  Observations (t = -, T = 70° C.): Pink solution
[7]; [13]
  Observations (t = -, T = 70° C.): Pink solution
  XRPD (moist pellet): Form A
  XRPD (oven dried): Form A
[7]; TBME 3.0 vol + MeOH 425 μl
  Observations (t = -, T = 70° C.): Pink solution
  XRPD (moist pellet): Form A
  XRPD (oven dried): Form A
[7]; THE 3.0 vol + Water 50 μl
  Observations (t = -, T = 70° C.): Pink solution
  XRPD (moist pellet): Form A
  XRPD (oven dried): Form A
[7]; Toluene 3.0 vol + MeOH 200 μl
  Observations (t = -, T = 70° C.): Pink solution
  XRPD (moist pellet): Form A
  XRPD (oven dried): Form A
[7]; Water 3.0 vol, no co-solvent
  Observations (t = -, T = 70° C.): Pink solution
